Measured values: US20040106545A1, “Compounds and methods for modulating cell adhesion” (priority 1996, published 2004)
Read-outs that look alike come from different tables or passages of the source. Positions of bridges follow the written chain, without caps; N, C: chain ends. Residues, ends and D or L forms follow the SMILES beside them.

How the values were obtained:
PC-3 [1] = type: cell-based, human; conditions: 3 h
Method: (§1) N—Ac-CHAVC-NH2 (SEQ ID NO:10) and the control peptide N—Ac-CHGVC-NH2 (SEQ ID NO:11) were evaluated for possible cytotoxic effects on human microvascular endothelial (HMVEC; Clonetics), human umbilical vein endothelial (HUVEC; ATCC #CRL-1730), IAFp2 (human fibroblast cell line; Institute Armand-Frapier, Montreal, Quebec), WI-38 (human fibroblast cell line; ATCC #CCL-75), MDA-MB231 (human breast cancer cell line; ATCC #HTB-26), and PC-3 (human prostate cancer cell line; ATCC #CRL-1435) cells utilizing the MTT assay (Plumb et al., Cancer Res. 49:4435-4440, 1989). Neither of the peptides was cytotoxic at concentrations up to and including 100 μM. Similarly, neither of the peptides was capable of inhibiting the proliferation of the above cell lines at concentrations up to 100 μM, as judged by ^3H-thymidine incorporation assays.

HUVEC = type: cell-based, human; conditions: 3 h
Method: as §1

MDA-MB231 [2] = type: cell-based, human; conditions: 3 h
Method: as §1

HMVEC = type: cell-based, human; conditions: 3 h
Method: as §1

WI-38 = type: cell-based, human; conditions: 3 h
Method: as §1

IAFp2 = type: cell-based, human; conditions: 3 h
Method: as §1

N-cadherin = biological target: T1, N-cadherin (Gallus gallus, UniProt P10288); assay: Neurite outgrowth inhibition, rat neurons (Example 21); type: cell-based; conditions: read-out: % Inhibition of neurite outgrowth; 250 μg/mL
T1 construct: expressed in transfected cells; host or cells: 3T3 fibroblasts (monolayer)
T1 sequence (P10288 165-912): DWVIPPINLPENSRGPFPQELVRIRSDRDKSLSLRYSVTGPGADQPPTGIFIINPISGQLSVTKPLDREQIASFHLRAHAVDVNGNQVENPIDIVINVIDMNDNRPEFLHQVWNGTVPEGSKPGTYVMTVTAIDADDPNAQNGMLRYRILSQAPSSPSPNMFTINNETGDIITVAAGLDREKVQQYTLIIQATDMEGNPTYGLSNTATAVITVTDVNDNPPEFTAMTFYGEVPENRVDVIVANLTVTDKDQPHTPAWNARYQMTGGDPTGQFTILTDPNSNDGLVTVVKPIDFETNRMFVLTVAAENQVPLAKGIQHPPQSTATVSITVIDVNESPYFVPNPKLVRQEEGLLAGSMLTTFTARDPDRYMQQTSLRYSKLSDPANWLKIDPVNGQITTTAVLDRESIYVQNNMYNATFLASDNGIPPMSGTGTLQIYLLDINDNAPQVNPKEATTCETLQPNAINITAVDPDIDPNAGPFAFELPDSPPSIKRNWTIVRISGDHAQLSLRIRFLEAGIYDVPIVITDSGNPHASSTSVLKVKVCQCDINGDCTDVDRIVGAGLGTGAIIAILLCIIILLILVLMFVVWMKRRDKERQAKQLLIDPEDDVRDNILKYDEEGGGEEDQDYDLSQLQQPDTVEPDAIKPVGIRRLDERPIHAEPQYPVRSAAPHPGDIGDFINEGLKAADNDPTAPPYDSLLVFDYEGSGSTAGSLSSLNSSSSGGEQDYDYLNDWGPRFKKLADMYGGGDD

MDA-MB231 [3] = assay: Cytotoxicity, MTT assay, MDA-MB231; type: cell-based, human
Method: as §1

PC-3 [4] = assay: Cytotoxicity, MTT assay, PC-3; type: cell-based, human
Method: as §1

[5] = system: chick embryonic chorioallantoic membranes; assay: Chick chorioallantoic membrane angiogenesis assay; type: in vivo; conditions: for Percent Inhibition of Angiogenesis: 24 hours
Method: Another cell adhesion assay evaluates the ability of a modulating agent to block angiogenesis (the growth of blood vessels from pre-existing blood vessels). This ability may be assayed using the chick chorioallantoic membrane assay described by Iruela-Arispe et al., Molecular Biology of the Cell 6:327-343, 1995. Briefly, a modulating agent may be embedded in a mesh composed of vitrogen at one or more concentrations (e.g., ranging from about 1 to 100 μg/mesh). The mesh(es) may then be applied to chick chorioallantoic membranes. After 24 hours, the effect of the peptide may be determined using computer assisted morphometric analysis. A modulating agent should inhibit angiogenesis by at least 25% at a concentration of 33 μg/mesh.
The chick chorioallantoic membrane assay was used to assess the effects of cyclic peptides on angiogenesis (Iruela-Arispe et al., Molecular Biology of the Cell 6:327-343, 1995). Cyclic peptides were embedded in a mesh composed of vitrogen at concentrations of 3, 17, and 33 μg/mesh. The meshes were then applied to 12-day-old chick embryonic chorioallantoic membranes. After 24 hours, the effects of the peptides on angiogenesis were assessed by computer assisted morphometric analysis.

Structure (SMILES)	IC50 (PC-3 [1])	IC50 (MDA-MB231 [2])	IC50 (HMVEC)	IC50 (IAFp2)	inhibition at 250 µg/mL (N-cadherin)	IC50 (HUVEC)	IC50 (WI-38)	IC50 (MDA-MB231 [3])	IC50 (PC-3 [4])	Percent Inhibition of Angiogenesis ([5]; 3 μg/mesh, absence (−) of 0.01 mM VEGF)	Percent Inhibition of Angiogenesis ([5]; 3 μg/mesh, presence (+) of 0.01 mM VEGF)	Percent Inhibition of Angiogenesis ([5]; 17 μg/mesh, absence (−) of 0.01 mM VEGF)	Percent Inhibition of Angiogenesis ([5]; 17 μg/mesh, presence (+) of 0.01 mM VEGF)	Percent Inhibition of Angiogenesis ([5]; 33 μg/mesh, absence (−) of 0.01 mM VEGF)	Percent Inhibition of Angiogenesis ([5]; 33 μg/mesh, presence (+) of 0.01 mM VEGF)	inhibition of angiogenesis (in words) ([5]; 3, 17 and 33 μg/mesh)
CC(C)[C@@H]1NC(=O)[C@H](C)NC(=O)[C@H](Cc2c[nH]cn2)NC(=O)[C@H](C)NC(=O)[C@@H](N)CSSC[C@@H](C(N)=O)NC(=O)[C@H](CC(=O)O)NC1=O [H—CAHAVDC—NH2, H-Cys-Ala-His-Ala-Val-Asp-Cys-NH2] (H-CAHAVDC-NH2; disulfide 1-7)	> 100 µM	> 100 µM	> 100 µM	> 100 µM	0%	> 100 µM	> 100 µM	> 100 µM	> 100 µM	–	–	–	–	–	–	–
CC(=O)N[C@H]1CSSC[C@@H](C(N)=O)NC(=O)[C@H](CO)NC(=O)[C@H](CO)NC(=O)[C@H](C(C)C)NC(=O)CNC(=O)[C@H](Cc2c[nH]cn2)NC(=O)[C@H](CO)NC1=O (Ac-CSHGVSSC-NH2; disulfide 1-8)	> 100 µM	> 100 µM	> 100 µM	> 100 µM	0%	> 100 µM	> 100 µM	> 100 µM	> 100 µM	–	–	–	–	–	–	–
CC[C@H](C)[C@@H]1NC(=O)[C@H](CC(=O)O)NC(=O)[C@H](C(C)C)NC(=O)CNC(=O)[C@H](Cc2c[nH]cn2)NC(=O)[C@H](C)NC(=O)[C@@H](N)CSSC[C@@H](C(N)=O)NC1=O (H-CAHGVDIC-NH2; disulfide 1-8)	> 100 µM	> 100 µM	> 100 µM	> 100 µM	0%	> 100 µM	> 100 µM	> 100 µM	> 100 µM	–	–	–	–	–	–	–
CC(C)[C@@H]1NC(=O)CNC(=O)[C@H](Cc2c[nH]cn2)NC(=O)[C@H](C)NC(=O)[C@@H](N)CSSC[C@@H](C(N)=O)NC(=O)[C@H](CC(=O)O)NC1=O [H—CAHGVDC—NH2] (H-CAHGVDC-NH2; disulfide 1-7)	> 100 µM	> 100 µM	> 100 µM	> 100 µM	0%	> 100 µM	> 100 µM	> 100 µM	> 100 µM	–	–	–	–	–	–	–

Now from value to compound, other results behind:

IC50 (PC-3 [1])	IC50 (MDA-MB231 [2])	IC50 (HMVEC)	IC50 (IAFp2)	inhibition at 250 µg/mL (N-cadherin)	Structure (SMILES)	IC50 (HUVEC)	IC50 (WI-38)	IC50 (MDA-MB231 [3])	IC50 (PC-3 [4])	Percent Inhibition of Angiogenesis ([5]; 3 μg/mesh, absence (−) of 0.01 mM VEGF)	Percent Inhibition of Angiogenesis ([5]; 3 μg/mesh, presence (+) of 0.01 mM VEGF)	Percent Inhibition of Angiogenesis ([5]; 17 μg/mesh, absence (−) of 0.01 mM VEGF)	Percent Inhibition of Angiogenesis ([5]; 17 μg/mesh, presence (+) of 0.01 mM VEGF)	Percent Inhibition of Angiogenesis ([5]; 33 μg/mesh, absence (−) of 0.01 mM VEGF)	Percent Inhibition of Angiogenesis ([5]; 33 μg/mesh, presence (+) of 0.01 mM VEGF)	inhibition of angiogenesis (in words) ([5]; 3, 17 and 33 μg/mesh)
> 100 µM	> 100 µM	> 100 µM	> 100 µM	0%	CC(=O)N[C@H]1CSSC[C@@H](C(N)=O)NC(=O)[C@H](CO)NC(=O)[C@H](C(C)C)NC(=O)CNC(=O)[C@H](Cc2c[nH]cn2)NC1=O [N—Ac—CHGVSC—NH2] (Ac-CHGVSC-NH2; disulfide 1-6)	42 µM	> 100 µM	> 100 µM	> 100 µM	–	–	–	–	–	–	–
> 100 µM	> 100 µM	> 100 µM	> 100 µM	–	CC(=O)N[C@H]1CSSC[C@@H](C(N)=O)NC(=O)[C@H](Cc2c[nH]cn2)NC(=O)[C@H](C)NC(=O)[C@H](C(C)C)NC1=O [N—Ac—CVAHC—NH2] (Ac-CVAHC-NH2; disulfide 1-5)	8 µM	> 100 µM	> 100 µM	> 100 µM	−1%^	7%	13%	24%	12%	25%	relatively inactive
> 100 µM	> 100 µM	> 100 µM	> 100 µM	0%	CC(=O)N[C@H]1CSSC[C@@H](C(N)=O)NC(=O)[C@H](C(C)C)NC(=O)CNC(=O)[C@H](Cc2c[nH]cn2)NC(=O)[C@H](CO)NC1=O [N—Ac—CSHGVC—NH2] (Ac-CSHGVC-NH2; disulfide 1-6)	> 100 µM	> 100 µM	> 100 µM	> 100 µM	–	–	–	–	–	–	–
